Measured values as given in patent US4923865A, “Substituted 1-(1H-imidazol-4-yl)alkyl-benzamides as anti-ischemics and as alpha-2-adrenergic receptor agonists” (U C B Societe Anonyme, priority 1988, dated 1990).
Where two headings read alike, the source gives them in different places.

Tests used:
[1] = tested on: male NMRI mice; assay: Toxicity, Irwin's test (lethal dose); type: in vivo; settings: intraperitoneal
Description: 5. Toxicity. The toxicity of the compounds according to the present invention has been determined in male NMRI mice by means of Irwin's test (S. IRWIN, Psychopharmacologia, 13, (1968), 222-257).
Progressive doses of the test compound are administered intraperitoneally to groups of three mice until the lethal dose is reached (dose causing the death of two out of three animals within 48 hours). In Table IX below, the lethal dose in mg/kg found for the compounds of the invention is given. It can be seen from this Table that the compounds of the invention are not very toxic.

[2] = Diuretic activity in beagle dogs (urine excretion); type: in vivo; settings: for Mean relative increase in urine excretion: first three hours; for minimal effective dose: Canis lupus familiaris, iv, 3 h, i.v., read-out: minimum active dose that causes a statistically significant increase of the urine excretion
Description: 4. Diuretic activity. The diuretic activity of the compounds of the invention has been determined using beagle dogs (6 males and 6 females) be means of a 6-way randomized cross-over study.
The compounds to be studied are administered intravenously at increasing doses: 2, 6.5, 20, 65 and 200 μg/kg. During the first three hours following the injection, the volume of urine excreted is measured. Table VIII gives for compound A the mean relative increase in % of the volume of urine excreted with respect to the group of animals which have not received the compound.

[3] = tested on: cerebral ischemia; assay: Unilateral, multifocal cerebral ischemia in the rat (microsphere embolization); type: in vivo, male Sprague-Dawley SPF rats
Source text: (b) Unilateral, multifocal cerebral ischemia in the rat. In awake, male Sprague-Dawley SPF rats, aged from 8 to 9 months, a permanent, unilateral cerebral ischemia (or embolization) is caused by introduction of 2000 microspheres (provided by 3M, St. Paul, U.S.A.; diameter 58±2 μm) into the right carotid stream (A. M. BRALET et al., Stroke, 10, (1979), 34-38; M. LE PONCIN-LAFITTE et al., Pathol. Biol. (Paris), 30, (1982), 289-293) after the permanent ligature of the right pterygopalatine artery (Y. KIYOTA et al., Pharmacol. Biochem. Behav. 24, (1986), 687-692).
The compound to be studied is administered for the first time 30 minutes before, and for the second time 30 minutes after embolization, while the control animals receive only a physiological salt solution. The animals are then allowed to rest. After 6 days of recovery, the surviving animals are measured for:
(1) the residual neurological deficit obtained from the test of posture and gait of the animals (Test A, maximum score: 4 points). This test evaluates:
(a) abnormal positioning of the hind paws (S. IRWIN, Psychophamacologia (Berlin), 13, (1968), 222-257);
(b) contralateral inclination of the body during locomotion;
(c) homolateral longitudinal flexion of the body, and
(d) abnormal gait (B. KOLB et al., loc. cit.).
(2) The sensorimotor functions (spontaneous motility, grasping reflex, placing reactions both visual and by loss of support (Test B, maximum score: 10 points); (C. CAPDEVILLE et al., loc. cit.).
(3) The lateralized sensorimotor response (on the contralateral side) (Test C, maximum score: 3 points). This is evaluated by combining the measurements of visual placing reflex, head orientation relfex towards a lateral sensory stimulus, and the cutaneous plantar reflex (C. CAPDEVILLE et al., loc. cit.; J. F. MARSHALL et al., Science (Washington), 174, (1971), 523-525).
(4) Tactile extinction on the left side (Test D, maximum score: 300 points). By contrast with the other tests mentioned above, for which the deficit is lower when the score is higher, the deficit is here more pronounced when the score approaches 300 (T. SCHALLERT et al., Pharmacol. Biochem. Behav. 16, (1982), 455-462).
On the seventh day of recovery, the edema present in various ipsilateral cerebral structures is also measured (M. LE PONCIN-LAFITTE et al., loc. cit.).
Table IV gives the results obtained in tests A to D for compound A, administered intraperitoneally at the dose of 0.76 μg/kg (3.2 nmoles/kg), i.e. The mean of the neurological scores determined for the whole group of surviving animals of the control group and of the treated group after 6 days of recovery. Also indicated in the Table is the mean variation (in g) of body weight measured on the 7th day of recovery. The statistical significant (P) of the difference between the mean values calculated for the control animals and for the treated animals is evaluated by the Mann-Whitney test.
In Table V, the quantity of water (as an average of the percentage) retained in various ipsilateral cerebral structures in the control animals and in the treated animals surviving at the 7th day after embolization, is indicated.

[4] = tested on: stenosis at the level of a coronary artery; assay: Effort trial on a moving belt in dogs with coronary artery stenosis; type: in vivo, dog; settings: dose 0.018 μmole/kg i.v.; maximum effort at 12 Km/h for 1 minute
Description: (b) Effort trial on a moving belt. In this test, a group of at least four dogs is used (equipped with intracardiac electrodes), the dogs having an organic stenosis at the level of a coronary artery. This stenosis causes imbalance between the demand and supply of oxygen when the animal is required to make an effort. This imbalance is expressed on the electrocardiogram by an increase in the ST-segment.
In the trial, the dog runs at a speed of 12 km/h on a moving belt having a slope of 15°. This maximum effort is required for one minute. During the trial, the increase in the ST-segment is recorded, together with the natural increase in the pulse rate. The experiment is repeated at least four times, and the mean of the values obtained is taken as reference (100%) for the group of animals. The animals are then allowed to rest for a minimum of 24 hours before being subjected to a new effort trial under the influence of the compound to be studied.
The compound to be studied is administered slowly (over 1 minute) by intravenous injection 5 minutes before the new effort trial. In the course of the latter, the variations in the same parameters are recorded.

For `Cl.NC(=O)c1cccc(Cc2c[nH]cn2)c1O` [A, 2-hydroxyl-3-[(1H-imidazol-4-yl)methyl]-benzamide hydrochloride], the “lethal dose (death of two out of three animals within 48 hours)” value [1] was 760000 µg/kg, the “Mean relative increase in urine excretion” value (from here on “Mean relative increase”) ([2]; 2 μg/kg i.v., females, P < 0.05) was 74% and the “Mean relative increase” value ([2]; 2 μg/kg i.v., males) was 25%. The “Mean relative increase” value ([2]; 6.5 μg/kg i.v., females, P < 0.01) was 291%, the “Mean relative increase” value ([2]; 6.5 μg/kg i.v., males, P < 0.05) was 122% and the “Mean relative increase” value ([2]; 20 μg/kg i.v., females, P < 0.01) was 531%. For the same compound, the “Mean relative increase” value ([2]; 20 μg/kg i.v., males, P < 0.01) was 383%, the “Mean relative increase” value ([2]; 65 μg/kg i.v., females, P < 0.01) was 804% and the “Mean relative increase” value ([2]; 65 μg/kg i.v., males, P < 0.01) was 345%. For the same compound, the “Mean relative increase” value ([2]; 200 μg/kg i.v., females, P < 0.01) was 988%, the “Mean relative increase” value ([2]; 200 μg/kg i.v., males, P < 0.01) was 412% and the minimal effective dose ([2]; females) was ≤ 2 µg/kg. For the same compound, the minimal effective dose ([2]; males) was ≤ 6.5 µg/kg, the weight variation ([3]; 0.76 μg/kg i.p., 7th day of recovery, control -5.7, P <0.05) was “+0.8 g” and the “Mean neurological score 6 days after embolization, test C” value ([3]; 0.76 μg/kg i.p., lateralized sensorimotor response, maximum 3 points, control 1.0, P <0.005) was 2.0. The “Mean neurological score 6 days after embolization, test A” value ([3]; 0.76 μg/kg i.p., posture and gait, maximum 4 points, control 1.0, P <0.01) was 2.0, the “Mean neurological score 6 days after embolization, test B” value ([3]; 0.76 μg/kg i.p., sensorimotor functions, maximum 10 points, control 7.3, P <0.05) was 8.0 and the “Mean neurological score 6 days after embolization, test D” value ([3]; 0.76 μg/kg i.p., tactile extinction, maximum 300 points, higher = greater deficit, control 243, P <0.05) was 96. The “Quantity of water in ipsilateral diencephalon” value ([3]; 7th day after embolization, control 77.04, P < 0.05) was 76.32 average %, the “Quantity of water in ipsilateral hippocampus” value ([3]; 7th day after embolization, control 80.20, P < 0.05) was 79.79 average % and the “Quantity of water in ipsilateral cortex” value ([3]; 7th day after embolization, control 81.33, P < 0.01) was 80.36 average %. For the same compound, the “Quantity of water in ipsilateral corpus striatum” value ([3]; 7th day after embolization, control 81.57, P < 0.005) was 80.05 average %, the “reduction in ST-segment” value [4] was 74% and the “reduction in the pulse rate” value [4] was 3 beats/min.
